Experimental data reported in paper PMC8861050, “Design, synthesis and evaluation of novel 2-oxoindoline-based acetohydrazides as antitumor agents” (Scientific Reports, 2022).

System: U937 cells
Assay: Annexin V-FITC/PI apoptosis assay
Assay type: cell-based, human
Settings: 24 h
Description: The Annexin V-FITC/PI dual staining assay was used to determine the percentage of apoptotic cells. U937 cells (5 × 10^5/mL per well) were plated in 6-well culture plates and allowed to grow for 24 h. In our first experiment, we examined the effects of 4f, 4h, 4n, 4o, 4p, and PAC-1 on apoptosis at 50 µM. In the second experiment, we examined the dose-dependent effect of 4o at 5, 10, and 30 µM and PAC-1 at 30 µM on apoptosis. The cells were treated with compounds for 24 h, and then harvested. The harvested cells were washed twice with ice-cold PBS and incubated in the dark at room temperature in […] of 1 × binding buffer containing 1 µL Annexin V-FITC and […] PI. After 15 min incubation, cells were analyzed for percentage undergoing apoptosis using a FACScalibur flow cytometer (BD Biosciences). The data were processed using Cell Quest Pro software (BD Biosciences).
Figure 5 Apoptosis (Annexin V/PI) analysis of cells after treatment with some compounds. U937 cells were treated with compounds (50 µM) for 24 h. The harvested cells were incubated with Annexin V-FITC and PI and analyzed by using flow cytometry. Ten thousand cells were acquired (n = 3). UN untreated, VH vehicle (DMSO. 0.1%). Representative dot plots (A). Live cells, left down in dot plot. Early apoptotic cells, right down. Necrotic cells, left up, Late apoptotic cells, right up. Bar graph of late apoptotic cells (B). p values were calculated using one-way ANOVA in GraphPad Software (San Diego, CA, USA). *p < 0.01 vs VH control. TEXT PRINTED IN THE PICTURE: (A) PAC-1: 10.40%; 29.30%; 12.70% | (A) 4f: 0.52%; 6.05%; 5.41% | (A) 4h: 0.89%; 13.20%; 7.67% | (A) 4n: 0.44%; 6.83%; 5.73% | (A) 4o: 0.67%; 17.30%; 8.17% | (A) 4p: 1.60%; 13.00%; 5.86% DOUBTS OF THE COPYIST ABOUT THIS PICTURE: The quadrant percentages are in small italic print over the dot plots, so 3, 5, 6, 8 and 9 cannot always be told apart. All values given are best readings. / PAC-1: 10.40%, 29.30% and 12.70% are best readings (29.30 could be 28.30) / 4f: 0.52%, 6.05% and 5.41% are best readings (6.05 could be 6.06 or 8.05) / 4h: 0.89%, 13.20% and 7.67% are best readings (0.89 could be 0.86 or 0.69) / 4n: 0.44%, 6.83% and 5.73% are best readings (6.83 could be 6.63 or 6.88) / 4o: 0.67%, 17.30% and 8.17% are best readings (8.17 could be 6.17) / 4p: 1.60%, 13.00% and 5.86% are best readings (5.86 could be 5.88 or 5.66) / The picture prints no measure for the percentages; only their quadrant position tells them apart. They are listed upper left, upper right, lower right. / The plots UN (0.70%, 2.31%, 3.03%) and VH (1.75%, 2.43%, 3.57%) are controls, not substances, and are left out of the lines.
Figure 6 Apoptosis (Annexin V/PI) analysis of cells after treatment with different concentrations of compound 4o. U937 cells were treated with compound 4o at 5, 10 and 30 µM or PAC-1 (30 µM) for 24 h. The harvested cells were incubated with Annexin V-FITC and PI and analyzed by using flow cytometry. Ten thousand cells were acquired (n = 3). UN untreated, VH vehicle (DMSO. 0.1%). Representative dot plots (A). Live cells, left down in dot plot. Early apoptotic cells, right down. Necrotic cells, left up, Late apoptotic cells, right up. Bar graph of late apoptotic cells (B). p values were calculated using one-way ANOVA in GraphPad Software (San Diego, CA, USA). *p < 0.01 vs VH control.

COc1ccc(/C=N/NC(=O)CN2C(=O)Cc3cc(F)ccc32)c(O)c1 [Compound 4o, (E)-N'-(2-Hydroxy-4-methoxybenzylidene)-2-(5-fluoro-2-oxoindolin-1-yl)acetohydrazide]
Late apoptotic cell population, dose dependence (U937, 5 µM): increased late apoptotic cell population | Apoptotic effects compared among the representative compounds (U937, 50 µM): more prominent | Induction of apoptosis (Annexin V-FITC/PI) (U937, 50 µM): induced early, and more substantially, late apoptosis
